Assay results reported in the NIST ThermoML archive (doi:10.1016/j.tca.2007.09.001).

Assay: molar heat capacity at constant pressure
Conditions: 101.33 kPa, Crystal, Large sample (1 g) DSC

[Co+3].[Nd+3].[O-2].[O-2].[O-2] [cobalt(III) neodymium(III) oxide]
Conditions | molar heat capacity at constant pressure [J/K/mol]
130 K | 57.2
140 K | 62.7
150 K | 67.7
160 K | 72.3
170 K | 76.4
180 K | 80.2
190 K | 83.5
200 K | 86.5
210 K | 89.2
220 K | 91.6
230 K | 93.8
240 K | 95.8
250 K | 97.8
260 K | 98.7
270 K | 100.5
280 K | 102.3
290 K | 104.1
298.15 K | 105.8
300 K | 105.9
325 K | 110.3
350 K | 116
375 K | 120.4
400 K | 122.9
425 K | 124.8
450 K | 127.1
475 K | 130.3
500 K | 134.5
525 K | 139.2
550 K | 144.1
575 K | 148.3
600 K | 151.4
625 K | 153.2
650 K | 153.3
675 K | 152.1
700 K | 149.9
725 K | 147.1
750 K | 144.3
775 K | 141.9
800 K | 140.3
825 K | 139.4
850 K | 138.5
